Reference: patent US9255295B2, “Method for evaluating the sensitizing potential of a test compound” (IMMUNOSEARCH, priority 2010, dated 2016)
Where two headings read alike, the source gives them in different places.

Tests used:
[1] = system: ARE gene family (AKR1B10, AKR1C1, AKR1C2, CYP1B1, FTH1P, FTL, G6PD, GCLM, NQO2, SLC7A11, TXNRD1, UGT1A1, UGT1A9, YWHAZ, CD36, CYP1A1, GCLC, HMOX1, NQO1, PSME2 …); settings: for AHR expression / AKR1B10 expression / AKR1C1 expression / AKR1C2 expression / CYP1A1 expression / CYP1B1 expression / FTH1P expression / FTL expression / GCLC expression / GCLM expression / HMOX1 expression / NQO1 expression / NQO2 expression / SLC7A11 expression / TXNRD1 expression / UGT1A1 expression / UGT1A9 expression: compared to the control
EPISKIN model = experiment: Sensitizing power: sensitizing potential retested at successive dilutions in the EPISKIN model

Q: Which results are given for CC=Cc1ccc(O)c(OC)c1 [Isoeugenol]?
A: AKR1C1 NUMBER OF GENES grade ([1]; 10%): 0 (if this expression is lower, the grade is 0); AKR1C2 NUMBER OF GENES grade ([1]; 10%): 0 (if this expression is lower, the grade is 0); ARE >1.3 (number of genes) ([1]; 10%): 5; CD36 expression compared to control ([1]; 10%): 0.6; CD36 grade (NUMBER OF GENES) ([1]; 10%): 0 (if this expression is lower, the grade is 0); CYP1A1 NUMBER OF GENES grade ([1]; 10%): 1 (If the expression is greater than 1.3 compared to the control, a grade of 11s given); CYP1B1 NUMBER OF GENES grade ([1]; 10%): 1 (If the expression is greater than 1.3 compared to the control, a grade of 11s given); FTH1P NUMBER OF GENES grade ([1]; 10%): 0 (if this expression is lower, the grade is 0); FTL NUMBER OF GENES grade ([1]; 10%): 0 (if this expression is lower, the grade is 0); GCLC NUMBER OF GENES grade ([1]; 10%): 0 (if this expression is lower, the grade is 0); GCLM NUMBER OF GENES grade ([1]; 10%): 1 (If the expression is greater than 1.3 compared to the control, a grade of 11s given); HMOX1 NUMBER OF GENES grade ([1]; 10%): 0 (if this expression is lower, the grade is 0); NQO1 NUMBER OF GENES grade ([1]; 10%): 0 (if this expression is lower, the grade is 0); NQO2 NUMBER OF GENES grade ([1]; 10%): 0 (if this expression is lower, the grade is 0); S100A8 expression compared to control ([1]; 10%): 1.3; S100A8 grade (NUMBER OF GENES) ([1]; 10%): 1 (If the expression is greater than 1.3 compared to the control, a grade of 11s given); SLC7A11 NUMBER OF GENES grade ([1]; 10%): 0 (if this expression is lower, the grade is 0); TOTAL ARE (number of genes) ([1]; 10%): 5; TXNRD1 NUMBER OF GENES grade ([1]; 10%): 1 (If the expression is greater than 1.3 compared to the control, a grade of 11s given); UGT1A1 NUMBER OF GENES grade ([1]; 10%): 0 (if this expression is lower, the grade is 0); UGT1A9 NUMBER OF GENES grade ([1]; 10%): 1 (If the expression is greater than 1.3 compared to the control, a grade of 11s given); AHR expression ([1]; 10%): 0.9; AKR1B10 expression ([1]; 10%): 0.5; AKR1C1 expression ([1]; 10%): 1.1; AKR1C2 expression ([1]; 10%): 0.7; CYP1A1 expression ([1]; 10%): 510.5; CYP1B1 expression ([1]; 10%): 39.8; FTH1P expression ([1]; 10%): 0.9; FTL expression ([1]; 10%): 0.9; GCLC expression ([1]; 10%): 0.8; GCLM expression ([1]; 10%): 1.5; HMOX1 expression ([1]; 10%): 1.2; NQO1 expression ([1]; 10%): 1.0; NQO2 expression ([1]; 10%): 0.9; SLC7A11 expression ([1]; 10%): 1.1; TXNRD1 expression ([1]; 10%): 1.5; UGT1A1 expression ([1]; 10%): 1.2; UGT1A9 expression ([1]; 10%): 1.6; AHR NUMBER OF GENES grade ([1]; 50%): 0 (if this expression is lower, the grade is 0); AKR1B10 NUMBER OF GENES grade ([1]; 50%): 0 (if this expression is lower, the grade is 0); AKR1C1 NUMBER OF GENES grade ([1]; 50%): 1 (If the expression is greater than 1.3 compared to the control, a grade of 11s given); AKR1C2 NUMBER OF GENES grade ([1]; 50%): 1 (If the expression is greater than 1.3 compared to the control, a grade of 11s given); ARE >1.3 (number of genes) ([1]; 50%): 11; CD36 expression compared to control ([1]; 50%): 0.6; CD36 grade (NUMBER OF GENES) ([1]; 50%): 0 (if this expression is lower, the grade is 0); CYP1A1 NUMBER OF GENES grade ([1]; 50%): 1 (If the expression is greater than 1.3 compared to the control, a grade of 11s given); CYP1B1 NUMBER OF GENES grade ([1]; 50%): 1 (If the expression is greater than 1.3 compared to the control, a grade of 11s given); FTH1P NUMBER OF GENES grade ([1]; 50%): 0 (if this expression is lower, the grade is 0); FTL NUMBER OF GENES grade ([1]; 50%): 1 (If the expression is greater than 1.3 compared to the control, a grade of 11s given); GCLC NUMBER OF GENES grade ([1]; 50%): 1 (If the expression is greater than 1.3 compared to the control, a grade of 11s given); GCLM NUMBER OF GENES grade ([1]; 50%): 1 (If the expression is greater than 1.3 compared to the control, a grade of 11s given); HMOX1 NUMBER OF GENES grade ([1]; 50%): 1 (If the expression is greater than 1.3 compared to the control, a grade of 11s given); NQO1 NUMBER OF GENES grade ([1]; 50%): 1 (If the expression is greater than 1.3 compared to the control, a grade of 11s given); NQO2 NUMBER OF GENES grade ([1]; 50%): 0 (if this expression is lower, the grade is 0); S100A8 expression compared to control ([1]; 50%): 1.5; S100A8 grade (NUMBER OF GENES) ([1]; 50%): 1 (If the expression is greater than 1.3 compared to the control, a grade of 11s given); SLC7A11 NUMBER OF GENES grade ([1]; 50%): 1 (If the expression is greater than 1.3 compared to the control, a grade of 11s given); TOTAL ARE (number of genes) ([1]; 50%): 11; TXNRD1 NUMBER OF GENES grade ([1]; 50%): 1 (If the expression is greater than 1.3 compared to the control, a grade of 11s given); UGT1A1 NUMBER OF GENES grade ([1]; 50%): 0 (if this expression is lower, the grade is 0); UGT1A9 NUMBER OF GENES grade ([1]; 50%): 0 (if this expression is lower, the grade is 0); AHR expression ([1]; 50%): 1.0; AKR1B10 expression ([1]; 50%): 1.0; AKR1C1 expression ([1]; 50%): 2.2; AKR1C2 expression ([1]; 50%): 1.3; CYP1A1 expression ([1]; 50%): 87.1; CYP1B1 expression ([1]; 50%): 39.1; FTH1P expression ([1]; 50%): 1.0; FTL expression ([1]; 50%): 1.5; GCLC expression ([1]; 50%): 1.3; GCLM expression ([1]; 50%): 2.0; HMOX1 expression ([1]; 50%): 1.4; NQO1 expression ([1]; 50%): 1.8; NQO2 expression ([1]; 50%): 1.1; SLC7A11 expression ([1]; 50%): 2.2; TXNRD1 expression ([1]; 50%): 2.6; UGT1A1 expression ([1]; 50%): 1.2; UGT1A9 expression ([1]; 50%): 1.2; sensitizing potential (conclusion) (EPISKIN model; 0.1%): Sensitizing; sensitizing potential (conclusion) (EPISKIN model; 1%): Sensitizing; sensitizing potential (conclusion) (EPISKIN model; 10%): Sensitizing; sensitizing potential (conclusion) (EPISKIN model; 50%): Sensitizing; sensitizing power (class) (EPISKIN model; from successive dilutions): MODERATE
